Consider three compounds from US9814711B2, “Antitubercular composition comprising rifampicin, isoniazid, ethambutol and pyrazinamide and its process of preparation” (priority 2013, dated 2017).

Where a name gives a salt, the structure may show the parent alone.

A short description of data set [1]: Dissolution time test (pH 6.8 phosphate buffer, 900 mL, paddle 100 rpm, HPLC). It counts as physicochemical. Conditions: for % of dissolved actives at 45 min after beginning the Dissolution time test: pH 6.8 phosphate buffer 900 mL paddle 100 rpm. On the procedure: The dissolution time of the actives can be measured by introducing one tablet (weight 1090 mg) in 900 mL of water at 37° C. buffered to pH 6.8 with a phosphate buffer wherein the medium is mixed with a paddle at 100 rpm. The phosphate buffer is prepared by dissolving 7 g of anhydrous dibasic sodium phosphate in 5 L of water, and adjusting with phosphoric acid to a pH of 6.8. The percentage of the actives dissolved at a given time can be measured by high performance liquid chromatography (HPLC).

The nature of data set [2]: Stability: active ingredient content of coated tablets, initial and after aging at 40° C. and 75% relative humidity. Format: physicochemical.
Where [3] appears, read: coated tablet of Example 1, aged 1 month at 40° C. and 75% relative humidity.
Where [4] appears, read: coated tablet of Example 1, aged 2 months at 40° C. and 75% relative humidity.
Setting [5] is: coated tablet of Example 1, initial.
[6] abbreviates: coated tablet of Example 1, aging 1 month at 40° C. and 75% relative humidity.
The mark [7] stands for this setting: coated tablet of Example 1, aging 2 months at 40° C. and 75% relative humidity.

Take `CC[C@@H](CO)NCCN[C@@H](CC)CO` [Ethambutol HCl, Ethambutol Hydrochloride]: the “% of dissolved actives at 45 min after beginning the Dissolution time test” value (“% of dissolved actives at 45 min” for short) in data set [1] (setting [3]) worked out at 100%; in data set [1] (setting [4]), 99%; in data set [1] (setting [5]) it was 100%. The “cumulative percentage of active released” value was 84 in data set [1] (tablet of Example 1, 5 min); 99 in data set [1] (tablet of Example 1, 10 min); 99 in data set [1] (tablet of Example 1, 15 min); 99 in data set [1] (tablet of Example 1, 20 min); 99 in data set [1] (tablet of Example 1, 30 min); 99 in data set [1] (tablet of Example 1, 45 min). In addition, in data set [1] (tablet of Example 1, 60 min), the “cumulative percentage of active released” value is 99. Besides, the “percentage of active ingredient measured relative to the target quantity” value was found to be 100.3% in data set [2] (setting [6]), 101.4% in data set [2] (setting [7]) and 100.6% in data set [2] (setting [5]).

Consider `NNC(=O)c1ccncc1` [Isoniazid], for which the “% of dissolved actives at 45 min” value was determined as 98% in data set [1] (setting [3]), 100% in data set [1] (setting [4]) and 98% in data set [1] (setting [5]). Moreover, the “cumulative percentage of active released” value in data set [1] (tablet of Example 1, 5 min) stood at 86; in data set [1] (tablet of Example 1, 10 min), 99; in data set [1] (tablet of Example 1, 15 min), 100; in data set [1] (tablet of Example 1, 20 min), 100; in data set [1] (tablet of Example 1, 30 min), 100; in data set [1] (tablet of Example 1, 45 min), 100. Besides, the “cumulative percentage of active released” value in data set [1] (tablet of Example 1, 60 min) is on record as 100. Besides, the results for the “percentage of active ingredient measured relative to the target quantity” value in data set [2] (setting [6]), in data set [2] (setting [7]) and in data set [2] (setting [5]) were 97.8%, 98.20% and 100.0%, respectively.

Turning to `NC(=O)c1cnccn1` [Pyrazinamide], the “% of dissolved actives at 45 min” value in data set [1] (setting [3]), in data set [1] (setting [4]) and in data set [1] (setting [5]) was 102% each time. The “cumulative percentage of active released” value in data set [1] (tablet of Example 1, 5 min) was found to be 90; in data set [1] (tablet of Example 1, 10 min), 101; in data set [1] (tablet of Example 1, 15 min) it was 102; in data set [1] (tablet of Example 1, 20 min), 102; in data set [1] (tablet of Example 1, 30 min), 102; in data set [1] (tablet of Example 1, 45 min), 102. Further, in data set [1] (tablet of Example 1, 60 min), the “cumulative percentage of active released” value turned out to be 102. The figures for the “percentage of active ingredient measured relative to the target quantity” value in data set [2] (setting [6]), in data set [2] (setting [7]) and in data set [2] (setting [5]) were 101.2%, 100.5% and 101.3%, respectively.
